Measured values published in paper PMC9588787, “Exploring the In situ pairing of human galectins toward synthetic O-mannosylated core M1 glycopeptides of α-dystroglycan” (Scientific Reports, 2022).
“Also recorded” adds a separate entry of the source. One block for each compound: values may come before it. Where no end group is shown, it is not given here.

Experiments:
[1] = system: Gal-1; assay: Glycopeptide microarray lectin binding assay, Gal-1; set-up: species or system human; conditions: compounds immobilised at 20 and/or 200 μM, quadruplets; labelled Gal-1 0.10-32.0 µg/mL, PBS pH 7.4, no reducing agent, ambient air (partially oxidizing)
Protocol: Following our reported optimized protocol, the binding profile of lectins were investigated using evanescent-field fluorescence-assisted microarray technology to directly monitor the interaction without the wash and dry-up process and rapid exchange of protein solution to evaluate concentration dependence, 0.10–32.0 µg/mL protein. The AO/PC-copolymer microarray slides were deprotected using 2N HCl treatment overnight at rt, rinsed with MilliQ H2O, and dried by centrifugation. Then, test compounds were robotically printed using Arduino-based CNC machine handcrafted robot in quadruplets at two concentrations (20 and 200 µM) in 25 mM AcOH-Pyr (pH 5.0), 0.0025% (w/v) Triton X-100 under constant condition (temperature: 20–25 °C and humidity: 35–45 RH). A 25 µg/mL Cyanin3-keto-BSA (Cy3-keto-BSA) was also printed in the slide as grid. Subsequently, the slide was incubated at 80 °C for 1 h to complete the oxime bond formation. Washed once with Milli-Q H2O and dried by centrifugation at 2,000 rpm for 2 min.
A silicon rubber sheet with six chambers was attached to the printed slide. Next, slide was pretreated with reaction buffer {Phosphate-Buffered Saline solution (PBS, 1X) [10 mM Na2HPO4, 1.8 mM KH2PO4, 2.7 mM KCl, 137 mM NaCl] pH7.4 containing 0.05% (v/v) Tween-20} for 15 min and dried by centrifugation. The PBS (with or without 10 mM DTT) solutions of galectin were prepared and maintained at a cold ice bath before use. Thereafter, a cover glass was set on each chamber and 12 µL of 0.10 µg/mL lectin solution in reaction buffer was added through the gap of the slide and cover. After 1 h of incubation with the lectin solution at rt in a humidified chamber, the slide was rinsed with washing buffer (reaction buffer with containing 0.05% (v/v) Tween-20) and fluorescence intensity was measured with GlycoStation System. To determine whether additional interactions will be detected at higher lectin concentrations, the reaction buffer solution was carefully removed and replaced with the next lectin test concentration, incubated for 5 min at rt, washed with reaction buffer and then fluorescence intensity was obtained. This step was repeated until all the chosen test concentrations were completed (0.32-, 1.00-, 3.20-, 10.0-, and 32.0 µg/mL).
Images of slides were captured in the presence of reaction buffer. The fluorescexcelence intensities obtained were analyzed using ArrayVision 8.0 (GE Healthcare). For each spot, background correction was applied to get the net intensity, and the average relative fluorescence unit (RFU) was plotted using Microsoft Excel for Microsoft 365. The lectin specificity was identified from high and low RFU values, the error bars being the standard deviation.

[2] = system: Gal-4; assay: Glycopeptide microarray lectin binding assay, Gal-4; set-up: species or system human; conditions: compounds immobilised at 20 and/or 200 μM; Gal-4 0.10-32.0 µg/mL, PBS pH 7.4, no reducing agent
Protocol: (§1) Following our reported optimized protocol, the binding profile of lectins were investigated using evanescent-field fluorescence-assisted microarray technology to directly monitor the interaction without the wash and dry-up process and rapid exchange of protein solution to evaluate concentration dependence, 0.10–32.0 µg/mL protein. The AO/PC-copolymer microarray slides were deprotected using 2N HCl treatment overnight at rt, rinsed with MilliQ H2O, and dried by centrifugation. […]
(§2) A silicon rubber sheet with six chambers was attached to the printed slide. […] After 1 h of incubation with the lectin solution at rt in a humidified chamber, the slide was rinsed with washing buffer (reaction buffer with containing 0.05% (v/v) Tween-20) and fluorescence intensity was measured with GlycoStation System. To determine whether additional interactions will be detected at higher lectin concentrations, the reaction buffer solution was carefully removed and replaced with the next lectin test concentration, incubated for 5 min at rt, washed with reaction buffer and then fluorescence intensity was obtained. […]
(§3) Images of slides were captured in the presence of reaction buffer. The fluorescexcelence intensities obtained were analyzed using ArrayVision 8.0 (GE Healthcare). […]

[3] = system: Gal-9; assay: Glycopeptide microarray lectin binding assay, Gal-9; set-up: species or system human; conditions: compounds immobilised at 20 and/or 200 μM; Gal-9 0.10-32.0 µg/mL, PBS pH 7.4, no reducing agent
Protocol: as §1, §2, §3

[4] = system: laminin-111, -121, -211, and -221 with unlabeled Gal-1; assay: Laminin–Gal-1 binding assay (trans-bridging on microarray); set-up: species or system human; conditions: 200 μM immobilised compounds; 0.10-32.0 µg/mL Cy3-laminin–unlabeled Gal-1, 32.0 µg/mL extended 30 min
Protocol: A 12 µL of premixed Cy3-labeled human recombinant laminin (BroadPharm and Biolamina, respectively) and unlabeled-Gal-1 with final concentration of 0.10 µg/mL was added to the printed test compounds. After 1 h of incubation with the laminin-galectin solution at rt in a humidified chamber, the slide was rinsed with washing buffer and fluorescence intensity was measured with GlycoStation System. To determine whether additional interactions will be detected at higher laminin-Gal-1 concentrations, the reaction buffer solution was carefully removed and replaced with the next test concentration, incubated for 5 min at rt, washed with reaction buffer and then fluorescence intensity was obtained. This step was repeated until all the chosen test concentrations were completed (0.32-, 1.00-, 3.20-, 10.0-, and 32.0 µg/mL). For weak interaction, incubation with 32.0 µg/mL of laminin-Gal-1 solution was extended for 30 min. Slide images were captured and analyzed as described above.

[5] = system: Gal-1, Gal-4, and Gal-9; assay: Microarray inhibition experiment (methyl-Lac, cellobiose, maltose, acetylated peptide 4); assay type: binding, human; conditions: for Gal-1 interaction with immobilised compound upon addition of methyl-Lac: Gal-1, Fig. 5b, 2.00 µM to 200 mM methyl-Lac; for Effect of soluble inhibitor on galectin binding to immobilised glycopeptides: 10 µg/mL galectin, sugars 2.00 µM to 200 mM, acetylated peptide 4 100 µM to 5.00 mM
Protocol: After 30 min of incubation with the galectin-inhibitor solution at rt in a humidified chamber, the slide was rinsed with washing buffer and fluorescence intensity was measured with GlycoStation System. […] Slide images were captured and analyzed as described above.

[6] = system: Gal-3; assay: Glycopeptide microarray lectin binding assay, Gal-3; set-up: species or system human; conditions: compounds immobilised at 20 and/or 200 μM; Gal-3 0.10-32.0 µg/mL, PBS pH 7.4, no reducing agent
Protocol: as §1, §2, §3

[7] = system: Gal-1, -3, -4, and -9; assay: Glycopeptide microarray, statements for the galectin test panel as a whole; assay type: binding, human; conditions: compounds immobilised at 20 and/or 200 μM; galectins 0.10-32.0 µg/mL, PBS pH 7.4, no reducing agent
Protocol: as §1, §2, §3

[8] = system: Gal-1; assay: 1H-15N HSQC NMR chemical shift perturbation of 15N-labeled Gal-1; assay type: binding, human; conditions: tested concentrations, 0.05 up to 64 equivalents of ligand; 100 µM Gal-1, pH 6.9, 10 mM DTT
Protocol: ^15N Gal-1 was expressed in Escherichia coli cells BL21(DE3) from pET-GST/TEV-LGVLFQGP-hLGALS1 vector (VectorBuilder, Japan). The component cells were transformed with an expression vector utilizing the heat shock method. After one night of incubation on LB Agar plate (containing 100 μg/mL ampicillin), a colony harboring the expression construct was selected and then inoculated unto 5 mL Luria Broth (LB) with antibiotic overnight at 37 °C with shaking. The bacterial pellet was then resuspended to a fresh 500 mL M9-labeled (^15N-NH4Cl as nitrogen source) medium containing ampicillin. After that, culture was grown at 37 °C for at least 4 h until OD600 = 0.6–1.2. The cells were then induced with 0.5 mM isopropyl-β-D-1-thiogalactopyranoside (IPTG) overnight at 25 °C. Bacteria expressing ^15N Gal-1 was lysed with a sonicator (for 5 min, 25% duty cycle. 5 output control) in buffer containing 50 mM PBS, pH 7.4, 150 mM NaCl, 2 mM DTT. […] Lectin-binding activity was analyzed by 15N-HQSC with methyl-Lac. […]
The ^15N-labeled Gal-1 was prepared at 100 µM concentration in 20 mM potassium phosphate buffer at pH 6.9, 50 µM EDTA and 10 mM DTT, made up using H2O/D2O (95:5%). […] Raw data were converted using TopSpin 4.1.3 and were analyzed using NMRFAM-Sparky[71]. […] The perturbation pattern of the Gal-1 (PDB ID: 1GZW) was analyzed and visualized by PyMOL 2.5.0 (http://www.pymol.org).

[9] = molecular target: laminins; conditions: basal lamina; read-out: Kd of Gal-1 binding to poly-LacNAc structures of laminins; cited from earlier work
Description: In the basal lamina, Gal-1 binds to the poly-LacNAc structures of laminins (Kd≈10^−6 M), to maintain glycan recognizing function of Gal-1 in the ECM[61]. During muscle repair, Gal-1 binds directly to laminin and α7β1 integrin modulating the late myoblast fusion. In addition, Gal-1 can dissociate from laminin and cross-link olfactory neurons, forming ne ...

[10] = molecular target: Gal-3; conditions: read-out: Kd of interaction with Gal-3; cited from earlier work
Description: The glycan-CBP interactions are influenced by not only the type of glycan but also the spatial orientation, carrier scaffold, accessibility, density, and spacing of sugar moieties along the glycoconjugate, to obtain optimum fit within the binding pocket of the receptors[37],[40],[44].

Gal-1 binding, microarray signal intensity (RFU) [1]: did not show significant interaction
Gal-1 trans-bridging of Cy3-laminin to immobilised compound, signal intensity [4]: remarkable signal intensities
Compound: 5-oxo-hexanoyl-TRGAIIQTPTLGPIQPTRV -NH2 [compound 5, mono-core M1 α-DG glycopeptide]
Gal-1 interaction with immobilised compound upon addition of methyl-Lac [5]: enhanced interaction

Gal-1 binding, microarray signal intensity (RFU) [1]: bound
Binding of the tested galectins (panel statement), microarray signal intensity [7]: high interaction
Compound: 5-oxo-hexanoyl-TRGAIIQTPTLGPIQPTRV -NH2 [compound 26, α-DG glycopeptide with heterogeneous glycans: LacNAc core M1 and core M1]
Galectin interaction with immobilised compound in the presence of methyl-Lac ([5]; 200 μM immobilised compounds, 10 µg/mL galectin with 2.00 µM to 200 mM methyl-Lac): significantly reduced interaction

Gal-4 binding, microarray signal intensity (RFU) [2]: significant reduction in the affinity
Gal-1 trans-bridging of Cy3-laminin to immobilised compound, signal intensity [4]: decrease in the trans-bridging activity
Compound: 5-oxo-hexanoyl-TRGAIIQTPTLGPIQPTRV -NH2 [compound 28, α-DG glycopeptide with heterogeneous glycans: sialyl-LacNAc core M1 and LacNAc core M1]
Gal-1 binding, microarray signal intensity (RFU) [1]: bound; also recorded: diminished Gal-1 binding

Effect of soluble inhibitor on galectin binding to immobilised glycopeptides [5]: minimal effect on the binding
Compound: 32: acetylated N-terminus unglycosylated α-DG peptide corresponding to 4 (Ac-TRGAIIQTPTLGPIQPTRV) [compound 32]
Chemical shift perturbation of 15N Gal-1 over the titration [8]: failed to induce any significant deviation in the chemical shift

Effect of soluble inhibitor on galectin binding to immobilised glycopeptides [5]: minimal effect on the binding
Compound: O=C[C@H](O)[C@@H](O)[C@H](O[C@@H]1O[C@H](CO)[C@@H](O)[C@H](O)[C@H]1O)[C@H](O)CO [cellobiose, reference compound]

Continued, compound first:

Compound: 5-oxo-hexanoyl-TRGAIIQTPTLGPIQPTRV -NH2 [compound 4, unglycosylated α-DG peptide backbone (…) with ketone linker]
Gal-1 binding, microarray signal intensity (RFU) [1]: binding was observed; also recorded: interact
Gal-4 binding, microarray signal intensity (RFU) [2]: interact
Gal-9 binding, microarray signal intensity (RFU) [3]: interact
Gal-1 trans-bridging of Cy3-laminin to immobilised compound, signal intensity [4]: could anchor laminins

Compound: 5-oxo-hexanoyl-TRGAIIQTPTLGPIQPTRV -NH2 [compound 6, mono-core M1 α-DG glycopeptide]
Gal-1 binding, microarray signal intensity (RFU) [1]: did not show significant interaction
Gal-1 interaction with immobilised compound upon addition of methyl-Lac [5]: enhanced interaction
Gal-1 trans-bridging of Cy3-laminin to immobilised compound, signal intensity [4]: remarkable signal intensities

Compound: 5-oxo-hexanoyl-TRGAIIQTPTLGPIQPTRV -NH2 [compound 11, tris-core M1 α-DG glycopeptide]
Gal-1 binding, microarray signal intensity (RFU) [1]: notable decrease in binding interaction

Compound: 5-oxo-hexanoyl-TRGAIIQTPTLGPIQPTRV -NH2 [compound 15, bis-LacNAc core M1 α-DG glycopeptide, consecutive glycosylation sites]
Gal-3 binding, microarray signal intensity (RFU) [6]: stronger affinity

Compound: 5-oxo-hexanoyl-TRGAIIQTPTLGPIQPTRV -NH2 [compound 18, tris-LacNAc terminated α-DG glycopeptide]
Gal-3 binding, microarray signal intensity (RFU) [6]: did not result in higher intensity
Binding of the tested galectins (panel statement), microarray signal intensity [7]: lesser interaction

Compound: CO[C@@H]1O[C@H](CO)[C@@H](O[C@@H]2O[C@H](CO)[C@H](O)[C@H](O)[C@H]2O)[C@H](O)[C@H]1O [methyl-Lac, methyl-β-lactoside, reference compound]
Effect of soluble inhibitor on galectin binding to immobilised glycopeptides [5]: significantly reduced interaction
Chemical shift perturbation of 15N Gal-1 over the titration [8]: shifted the ^1H-^15N HSQC signals corresponding to the residues on S3–L6 regions

Compound: Gal-1: prototype homodimeric human galectin
Kd [9]: ~1 µM

Compound: Galβ1,3GalNAcα1-O-Ser/Thr [TF antigen]
Kd [10]: 245 µM
